Data on 22 compounds can be found in PubChem BioAssay (NCI).

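Test compounds were applied to cells in 96-well plates for 48 hours at 5 doses. TGI denotes the concentration required for complete inhibition of growth.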

Test systems include NCI/ADR-RES ovarian; SK-OV-3 ovarian; NCI-H460 lung; NCI-H226 lung; MDA-MB-435; ACHN renal; HOP-62 NSCLC; SK-MEL-2 melanoma; RXF 393 renal; MCF7 breast.
Common to all, as to assay: NCI tumour cell line growth inhibition, 48 h

On to `CC(O)(C(=O)N(O)c1ccc(Cl)cc1)c1ccc(Cl)cc1` (stereo not given), for which the TGI in the assay with NCI/ADR-RES ovarian is 86.6 µM; in the assay with SK-OV-3 ovarian, 97.5 µM; in the assay with NCI-H460 lung, more than 100 µM; with NCI-H226 lung, more than 100 µM; with MDA-MB-435, 87.8 µM; in the assay on ACHN renal it was 62.3 µM. Also, the TGI in the assay on HOP-62 NSCLC is 93 µM; in the assay with SK-MEL-2 melanoma, 50.1 µM; in the assay with RXF 393 renal, 95.2 µM; in the assay with MCF7 breast, more than 100 µM.
For the compound `CC(C)(C)c1ccc2c(c1)OCc1n[nH]c(n1)COc1cc(C(C)(C)C)ccc1OCCOCCO2`, the TGI in the assay on NCI/ADR-RES ovarian is 12.4 µM; in the assay with SK-OV-3 ovarian it was 15.3 µM; in the assay on NCI-H460 lung, 12.7 µM; in the assay on NCI-H226 lung, 8.97 µM; in the assay with MDA-MB-435, 11.5 µM; in the assay with ACHN renal, 14.8 µM. Moreover, the TGI worked out at 19.2 µM in the assay with HOP-62 NSCLC, 5.27 µM in the assay with SK-MEL-2 melanoma, 4.56 µM with RXF 393 renal and 12.8 µM in the assay on MCF7 breast.
`O=c1c(Cc2ccccc2)c(-c2ccccc2)[nH]n1C1=NCCN1`: the TGI in the assay with NCI/ADR-RES ovarian, in the assay with SK-OV-3 ovarian, in the assay on NCI-H460 lung, in the assay with NCI-H226 lung, in the assay with MDA-MB-435 and with ACHN renal was more than 100 µM each time. For the same compound, the TGI with HOP-62 NSCLC, with SK-MEL-2 melanoma, with RXF 393 renal and in the assay with MCF7 breast was more than 100 µM in each case.
For the compound `COn1cc(CO)c2ccccc21`, the TGI is more than 100 µM in the assay on NCI/ADR-RES ovarian; more than 100 µM with SK-OV-3 ovarian; more than 100 µM in the assay with NCI-H460 lung; 6.35 µM in the assay on NCI-H226 lung; more than 100 µM with MDA-MB-435; more than 100 µM in the assay with ACHN renal. The TGI is more than 100 µM in the assay with HOP-62 NSCLC, more than 100 µM with SK-MEL-2 melanoma, 47.8 µM in the assay with RXF 393 renal and more than 100 µM in the assay on MCF7 breast.
As for `COc1cc2nc(-c3c(F)cccc3F)n(Cc3c(F)cccc3F)c2cc1Cc1c(F)cccc1F`, the TGI in the assay on NCI/ADR-RES ovarian, in the assay on SK-OV-3 ovarian, with NCI-H460 lung, in the assay on NCI-H226 lung, in the assay on MDA-MB-435 and in the assay on ACHN renal was more than 100 µM each time. Besides, the TGI was more than 100 µM in the assay on HOP-62 NSCLC, more than 82.2 µM in the assay with SK-MEL-2 melanoma, more than 28.9 µM in the assay on RXF 393 renal and more than 63.9 µM in the assay on MCF7 breast.
Take `CC1(C)[C@@H]2C[C@H]1c1cnc(-c3ccccn3)cc1[C@H]2C(O)[C@@H]1c2cc(-c3ccccn3)ncc2[C@H]2C[C@@H]1C2(C)C` (stereo not given in full): the TGI in the assay with NCI/ADR-RES ovarian was 1.41 µM; in the assay with SK-OV-3 ovarian it was 14.8 µM; with NCI-H460 lung, 24.3 µM; in the assay with NCI-H226 lung, 0.502 µM; in the assay on MDA-MB-435, more than 38.5 µM; in the assay with ACHN renal, 1.54 µM. For the same compound, the TGI in the assay on HOP-62 NSCLC amounted to 5.58 µM; in the assay on SK-MEL-2 melanoma, 13 µM; in the assay with RXF 393 renal, 1.62 µM; with MCF7 breast, 13.5 µM.
As to `Cc1cccc(NC(Nc2cccc(C)c2)=C(C(Cl)=C(Cl)Cl)[N+](=O)[O-])c1`, the TGI is 35.4 µM in the assay on NCI/ADR-RES ovarian; more than 100 µM with SK-OV-3 ovarian; more than 62.5 µM in the assay with NCI-H460 lung; 22.5 µM in the assay on NCI-H226 lung; 28.7 µM in the assay with MDA-MB-435; 43.1 µM in the assay on ACHN renal. Also, the TGI in the assay on HOP-62 NSCLC was 41.7 µM; with SK-MEL-2 melanoma, 48.5 µM; in the assay with RXF 393 renal, 22.8 µM; with MCF7 breast, more than 100 µM.
In the case of `O=CN(O)CC(=O)O`, the TGI with NCI/ADR-RES ovarian, in the assay with SK-OV-3 ovarian, in the assay with NCI-H460 lung, with NCI-H226 lung, in the assay on MDA-MB-435 and with ACHN renal was more than 100 µM throughout. For the same compound, the TGI in the assay with HOP-62 NSCLC, in the assay on SK-MEL-2 melanoma, with RXF 393 renal and in the assay with MCF7 breast was more than 100 µM in each case.
`COC(=O)C(CCSC)NC(=O)CSc1nnc(COc2ccc(Cl)cc2)n1-c1ccccc1` (stereo not given): the TGI was 39.2 µM in the assay on NCI/ADR-RES ovarian; 43.2 µM in the assay on SK-OV-3 ovarian; 29.8 µM with NCI-H460 lung; 43.3 µM in the assay with NCI-H226 lung; 34.3 µM in the assay on MDA-MB-435; 32.1 µM in the assay with ACHN renal. For the same compound, the TGI with HOP-62 NSCLC worked out at 23.8 µM; in the assay on SK-MEL-2 melanoma it was 30.6 µM; in the assay on RXF 393 renal, 35.4 µM; with MCF7 breast it was 41.8 µM.
As to `Brc1ccc2c(c1)-c1nc3c(cc1CC2)CCc1ccc(Br)cc1-3`, the TGI with NCI/ADR-RES ovarian, in the assay on SK-OV-3 ovarian, in the assay with NCI-H460 lung, in the assay on NCI-H226 lung, with MDA-MB-435 and in the assay on ACHN renal was more than 100 µM throughout. Moreover, the TGI with HOP-62 NSCLC, in the assay with SK-MEL-2 melanoma, in the assay with RXF 393 renal and with MCF7 breast was more than 100 µM in each case.
On to `c1ccc(-c2ccc(N=NN3CCCC3)cc2)cc1`, for which the TGI in the assay with NCI/ADR-RES ovarian, in the assay on SK-OV-3 ovarian, with NCI-H460 lung, with NCI-H226 lung, with MDA-MB-435 and in the assay with ACHN renal was more than 100 µM in each case. The TGI with HOP-62 NSCLC, with SK-MEL-2 melanoma, in the assay on RXF 393 renal and in the assay with MCF7 breast was more than 100 µM each time.
`COC(=O)c1sc2ncc3c(c2c1N)CC(C)CC3` (stereo not given): the TGI in the assay with NCI/ADR-RES ovarian, in the assay on SK-OV-3 ovarian, in the assay with NCI-H460 lung, in the assay with NCI-H226 lung, with MDA-MB-435 and in the assay with ACHN renal was more than 100 µM in each case. The TGI with HOP-62 NSCLC, with SK-MEL-2 melanoma, in the assay on RXF 393 renal and with MCF7 breast was more than 100 µM each time.
With `C(=N/Nc1ccc(-c2nc3ccccc3[nH]2)cc1)/c1c(-c2ccccc2)[nH]c2ccccc12`, the TGI was 17.4 µM in the assay with NCI/ADR-RES ovarian; 20.5 µM in the assay on SK-OV-3 ovarian; 32.3 µM in the assay with NCI-H460 lung; 6.47 µM with NCI-H226 lung; 0.785 µM in the assay on MDA-MB-435; more than 100 µM with ACHN renal. Also, the TGI was 30.9 µM in the assay with HOP-62 NSCLC, 0.794 µM in the assay with SK-MEL-2 melanoma, more than 100 µM with RXF 393 renal and more than 100 µM in the assay on MCF7 breast.
`NNC(=O)c1cccc2c1Oc1ccccc1S2`: the TGI in the assay with NCI/ADR-RES ovarian, in the assay on SK-OV-3 ovarian, in the assay on NCI-H460 lung, in the assay on NCI-H226 lung, in the assay on MDA-MB-435 and in the assay with ACHN renal was more than 100 µM throughout. Also, the TGI in the assay with HOP-62 NSCLC, in the assay on SK-MEL-2 melanoma, in the assay with RXF 393 renal and in the assay with MCF7 breast was more than 100 µM in each case.
As for `O=C(NCCCNCCCCNCCCNC(=O)C(F)(F)F)C(F)(F)F`, the TGI in the assay with NCI/ADR-RES ovarian, in the assay with SK-OV-3 ovarian, in the assay with NCI-H460 lung, with NCI-H226 lung, in the assay with MDA-MB-435 and in the assay on ACHN renal was more than 100 µM throughout. The TGI in the assay on HOP-62 NSCLC, with SK-MEL-2 melanoma, in the assay with RXF 393 renal and in the assay with MCF7 breast was more than 100 µM each time.
For `Cc1cn(C2CC(OC(c3ccccc3)(c3ccccc3)c3ccccc3)C(COC(c3ccccc3)(c3ccccc3)c3ccccc3)O2)c(=O)[nH]c1=O` (stereo not given), the TGI in the assay with NCI/ADR-RES ovarian is more than 100 µM; in the assay with SK-OV-3 ovarian, more than 100 µM; with NCI-H460 lung, more than 100 µM; with NCI-H226 lung it was 88.7 µM; in the assay with MDA-MB-435, more than 100 µM; in the assay on ACHN renal, more than 100 µM. In addition, the TGI in the assay on HOP-62 NSCLC, in the assay on SK-MEL-2 melanoma, in the assay with RXF 393 renal and in the assay with MCF7 breast was more than 100 µM each time.
Take `CC[P+](C#Cc1ccccc1)(c1ccccc1)c1ccccc1`: the TGI in the assay with NCI/ADR-RES ovarian is more than 100 µM; with SK-OV-3 ovarian it was 9.43 µM; in the assay with NCI-H460 lung it was 11.2 µM; with NCI-H226 lung, 8.69 µM; with MDA-MB-435, 2.83 µM; in the assay on ACHN renal, 13 µM. The TGI in the assay on HOP-62 NSCLC came out at 8.94 µM; in the assay on SK-MEL-2 melanoma it was 4.3 µM; in the assay on RXF 393 renal, 4.39 µM; in the assay on MCF7 breast, 10.8 µM.
For `COC(=O)C1=C(C(=O)OC)C2(C)CCC(=O)C1O2` (stereo not given), the TGI in the assay on NCI/ADR-RES ovarian, in the assay with SK-OV-3 ovarian, in the assay on NCI-H460 lung, with NCI-H226 lung, with MDA-MB-435 and in the assay on ACHN renal was more than 10 µM in each case. The TGI in the assay with HOP-62 NSCLC, in the assay with SK-MEL-2 melanoma, in the assay on RXF 393 renal and in the assay with MCF7 breast was more than 10 µM throughout.
`COP(=O)(CC(=O)C1OC(OCc2ccccc2)C(OCc2ccccc2)C(OCc2ccccc2)C1OCc1ccccc1)OC` (stereo not given): the TGI was 90.2 µM in the assay on NCI/ADR-RES ovarian; more than 100 µM in the assay with SK-OV-3 ovarian; 38.4 µM in the assay with NCI-H460 lung; 54 µM in the assay with NCI-H226 lung; 27.9 µM with MDA-MB-435; 23.2 µM in the assay on ACHN renal. Also, the TGI is more than 100 µM in the assay on HOP-62 NSCLC, 11 µM in the assay on SK-MEL-2 melanoma, 19.4 µM in the assay on RXF 393 renal and 37.4 µM in the assay with MCF7 breast.
Take `CC1=NC(C)(C)N(O)C1(C)C`: the TGI in the assay on NCI/ADR-RES ovarian, in the assay with SK-OV-3 ovarian, in the assay on NCI-H460 lung, with NCI-H226 lung, with MDA-MB-435 and with ACHN renal was more than 100 µM each time. Also, the TGI in the assay with HOP-62 NSCLC, with SK-MEL-2 melanoma, in the assay on RXF 393 renal and with MCF7 breast was more than 100 µM in each case.
In the case of `COc1cc(/C=C/c2cc(=O)cc(/C=C/c3ccc(O)c(OC)c3)o2)ccc1O`, the TGI in the assay on NCI/ADR-RES ovarian is more than 100 µM; in the assay on SK-OV-3 ovarian, more than 100 µM; in the assay with NCI-H460 lung, more than 100 µM; with NCI-H226 lung, 98.3 µM; in the assay with MDA-MB-435, more than 100 µM; in the assay on ACHN renal it was more than 100 µM. Further, the TGI in the assay with HOP-62 NSCLC was more than 63.8 µM; with SK-MEL-2 melanoma, more than 100 µM; in the assay on RXF 393 renal, more than 55.2 µM; in the assay on MCF7 breast, more than 100 µM.
As to `O=c1cc(-c2ccccc2F)[nH]c2cc3c(cc12)OCO3`, the TGI is 0.246 µM in the assay on NCI/ADR-RES ovarian; 14.2 µM with SK-OV-3 ovarian; more than 32.3 µM with NCI-H460 lung; 1.81 µM with NCI-H226 lung; 0.0217 µM with MDA-MB-435; more than 100 µM in the assay with ACHN renal. In addition, the TGI is more than 21 µM in the assay with HOP-62 NSCLC, more than 100 µM with SK-MEL-2 melanoma, more than 100 µM in the assay on RXF 393 renal and more than 50.9 µM with MCF7 breast.
